# Target: T1, cloned human CCR8 receptor stably expressed in L1.2 cells (Homo sapiens, UniProt P51685)
# T1 construct: expressed in transfected cells
# Assay: whole cell binding screen: inhibition of biotinylated human I309 binding to CCR8 (FMAT 8100 HTS)
# Settings: Ki of compounds to inhibit I-309 binding to CCR8, L1.2/hCCR8 cells, biotinylated human I-309, 10 point concentration response starting at 10 μM
# Procedure, shortened: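 Ten-point dilutions, top 10 μM final, were tested for displacing biotin-I309 from hCCR8-transfected L1.2 cells in HEPES-buffered HBSS with BSA and sodium azide, mixing 0.5 h before FMAT 8100 detection. Signals converted to percent inhibition against untreated wells and a 100 nM excess unlabeled I309 control.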
# T1 sequence (P51685 whole entry): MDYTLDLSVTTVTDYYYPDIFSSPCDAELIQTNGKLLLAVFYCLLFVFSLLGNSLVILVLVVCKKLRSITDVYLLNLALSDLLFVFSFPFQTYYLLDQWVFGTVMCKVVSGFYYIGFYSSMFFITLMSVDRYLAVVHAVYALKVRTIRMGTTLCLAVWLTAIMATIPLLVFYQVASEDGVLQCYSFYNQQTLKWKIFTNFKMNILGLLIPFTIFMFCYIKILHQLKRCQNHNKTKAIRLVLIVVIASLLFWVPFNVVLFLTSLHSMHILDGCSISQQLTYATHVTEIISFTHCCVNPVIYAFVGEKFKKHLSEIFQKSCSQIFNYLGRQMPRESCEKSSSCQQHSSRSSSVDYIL
row,Compound,Ki [nM]
1,"CCCC(=O)N1CCC(NS(=O)(=O)c2ccc(NC(=O)C3CCC3)c3ccccc23)CC1 [Compound D-19, Cyclobutanecarboxylic acid [4-(1-butyryl-piperidin-4-ylsulfamoyl)-naphthalen-1-yl]-amide]",< 500
2,"Cc1ccccc1C(=O)Nc1ccc(S(=O)(=O)NC2CCN(C(=O)NC(C)C)CC2)c2ccccc12 [Compound C-46, 4-[4-(2-Methyl-benzoylamino)-naphthalene-1-sulfonylamino]-piperidine-1-carboxylic acid isopropylamide]",< 500
3,"CCC(=O)N1CCC(NS(=O)(=O)c2ccc(NC(=O)c3ccccc3C)c3ccccc23)CC1 [Compound C-50, 2-Methyl-N-[4-(1-propionyl-piperidin-4-ylsulfamoyl)-naphthalen-1-yl]-benzamide]",< 500

# Same assay, conditions: L1.2/hCCR8 cells, biotinylated human I-309, 10 point concentration response starting at 10 μM; read-out: Ki of compounds to inhibit I-309 binding to CCR8
row,Ki [nM],Compound
1,< 500,"CCOC(=O)N1CCC(NS(=O)(=O)c2ccc(NC(=O)c3ccccc3Cl)c3ccccc23)CC1 [Compound A-43, 4-[4-(2-Chloro-benzoylamino)-naphthalene-1-sulfonylamino]-piperidine-1-carboxylic acid ethyl ester]"
2,< 500,"O=C(Nc1ccc(S(=O)(=O)NC2CCCCC2)c2c1CCCC2)C1CCCCC1 [Compound E-5, Cyclohexanecarboxylic acid (4-cyclohexylsuffamoyl-5,6,7,8-tetrahydro-naphthalen-1-yl)-amide]"
3,< 500,"CCOC(=O)N1CCC(NS(=O)(=O)c2ccc(NC(=O)c3ccccc3C)c3c2CN(CC)CC3)CC1 [Compound J-42, 4-[2-Ethyl-5-(2-methyl-benzoylamno)-1,2,3,4-tetrahydro-isoquinoline-8-sulfonylamino]-piperidine-1-carboxylic acid ethyl ester]"
4,< 500,"Cc1ccccc1C(=O)Nc1ccc(S(=O)(=O)N[C@@H]2CCN(C(=O)[C@H](C)N)C[C@H]2C)c2ccccc12 [Compound J-3, (3R, 4R)-N-{4-[1-(2-(S)-Amino-propionyl)-3-methyl-piperidin-4-ylsulfamoyl]-naphthalen-1-yl}-2-methyl-benzamide]"
5,< 30000,"O=C(Nc1cccc2ccc(S(=O)(=O)Nc3ccc(F)cc3)cc12)c1ccccc1 [Compound H-48, N-[7-(4-Fluoro-phenylsulfamoyl)-naphthalen-1-yl]-benzamide]"
6,< 500,"Cc1ccccc1NC(=O)c1ccc(S(=O)(=O)NC2CCN(C(=O)OC(C)(C)C)CC2)c2ccccc12 [Compound F-4, 4-(4-o-Tolylcarbamoyl-naphthalene-1-sulfonylamino)-piperidine-1-carboxylic acid tert-butyl ester]"
7,< 1000,"CCNC(=O)N1CCC(NS(=O)(=O)c2ccc(N3C(=O)c4ccccc4C3=O)c3ccccc23)CC1 [Compound C-98, 4-[4-(1,3-Dioxo-1,3-dihydro-isoindol-2-yl)-naphthalene-1-sulfonylamino]-piperidine-1-carboxylic acid ethylamide]"
8,< 500,"Cc1ccccc1C(=O)Nc1ccc(S(=O)(=O)N[C@H]2CCN(C(=O)[C@H](C)N)C[C@@H]2C)c2ccccc12 [Compound J-2, (3S, 4S)-N-{4-[1-(2-(S)-Amino-propionyl)-3-methyl-piperidin-4-ylsulfamoyl]-naphthalen-1-yl}-2-methyl-benzamide]"
9,< 500,"CCCC(=O)N1CC[C@H](NS(=O)(=O)c2ccc(NC(=O)c3ccccc3C)c3ccccc23)[C@@H](CO)C1 (racemic) [Compound C-76, (±)-(trans)-N-[4-(1-butyryl-3-hydroxymethyl-piperidin-4-ylsulfamoyl)-naphthalen-1-yl]-2-methyl-benzamide]"
10,< 30000,"COc1ccc(NS(=O)(=O)c2cc3c(c(NC(=O)c4ccccc4)c2)CCCC3)cc1 [Compound H-55, N-[3-(4-Methoxy-phenylsulfamoyl)-5,6,7,8-tetrahydro-naphthalen-1-yl]-benzamide]"
11,< 30000,"C[C@@H]1CNCC[C@@H]1NS(=O)(=O)c1ccc(N2C(=O)c3ccccc3C2=O)c2ccccc12 (racemic) [Compound C-74, (±)-(cis)-4-(1,3-Dioxo-1,3-dihydro-isoindol-2-yl)-naphthalene-1-sulfonic acid (3-methyl-piperidin-4-yl)-amide]"
12,< 500,"Cc1ccccc1C(=O)Nc1ccc(S(=O)(=O)N[C@H]2CCN(C(=O)C3CCCN3)C[C@H]2C)c2cccnc12 (stereo in doubt) [Compound J-38, (3R, 4S)-2-Methyl-N-{5-[3-methyl-1-((R)pyrrolidine-2-carbonyl)-piperidin-4-ylsulfamoyl]-quinolin-8-yl}-benzamide]"
13,< 500,"CCOC(=O)N1CCC(NS(=O)(=O)c2ccc(NC(=O)c3ccccc3C#N)c3ccccc23)CC1 [Compound B-26, 4-[4-(2-Cyano-benzoylamino)-naphthalene-1-sulfonylamino]-piperidine-1-carboxylic acid ethyl ester]"
14,< 30000,"CN1CCC(C(=O)Nc2ccc(S(=O)(=O)NC3CCN(C(=O)OC(C)(C)C)CC3)c3ccccc23)CC1 [Compound B-21, 4-{4-[(1-Methyl-piperidine-4-carbonyl)-amino]-naphthalene-1-sulfonylamino}-piperidine-1-carboxylic acid tert-butyl ester]"
15,< 1000,"CCOC(=O)N1C[C@@H](C)[C@@H](NS(=O)(=O)c2ccc(NC(=O)c3ccccc3C)c3ccccc23)[C@@H](C)C1 [Compound C-70, (±)-(cis,cis)-3,5-Dimethyl-4-[4-(2-methyl-benzoylamino)-naphthalene-1-sulfonylamino]-piperidine-1-carboxylic acid ethyl ester]"
16,< 500,"O=S(=O)(NC1CCCCC1)c1ccc(CNC2CCCCC2)c2ccccc12 [Compound G-31, 4-Cyclohexylaminomethyl-naphthalene-1-sulfonic acid cyclohexylamide]"
17,< 500,"Cc1ccccc1C(=O)Nc1ccc(S(=O)(=O)NC2CCN(C(=O)OC(C)(C)C)C2)c2c1CCC2 (racemic) [Compound H-68, (±)-3-[7-(2-Methyl-benzoylandno)-indane-4-sulfonylamino]-pyrrolidine-1-carboxylic acid tert-butyl ester]"
18,< 1000,"CCOC(=O)N1CCC(NS(=O)(=O)c2ccc(NC(=O)c3ccccc3)c3c2CCCC3)CC1 [Compound E-4, 4-(4-Benzoylamino-5,6,7,8-tetrahydro-naphthalene-1-sulfonylamino)-piperidine-1-carboxylic acid ethyl ester]"
19,< 500,"CCCC(=O)N1CC[C@H](NS(=O)(=O)c2ccc(N3C(=O)c4ccccc4C3=O)c3ccccc23)[C@H](C)C1 (racemic) [Compound C-75, (±)-(cis)-4-(1,3-Dioxo-1,3-dihydro-isoindol-2-yl)-naphthalene-1-sulfonic acid (1-butyryl-3-methyl-piperidin-4-yl)-amide]"
20,< 500,"Cc1ccccc1C(=O)Nc1ccc(S(=O)(=O)N[C@H]2CCN(C(=O)[C@H]3CCCN3)C[C@H]2C)c2ccccc12 [Compound J-7, (3R, 4S)-2-Methyl-N-{4-[3-methyl-1-((R)pyrrolidine-2-carbonyl)-piperidin-4-ylsuffamoyl]-naphthalen-1-yl}-benzamide]"
21,< 500,"CCCC(=O)N1CC[C@@H](NS(=O)(=O)c2ccc(NC(=O)c3ccccc3C)c3ccccc23)[C@@H](C)C1 (single isomer, unassigned) [Compound C-140, cis-N-[4-(1-butyryl-3-methyl-piperidin-4-ylsulfamoyl)-naphthalen-1-yl]-2-methyl-benzamiide]"
22,< 500,"CCOC(=O)N1CCC(NS(=O)(=O)c2ccc(CNCc3ccc(OC)cc3)c3ccccc23)CC1 [Compound G-10, 4-{4-[(4-Methoxy-benzylamino)-methyl]-naphthalene-1-sulfonylamino}-piperidine-1-carboxylic acid ethyl ester]"
23,< 500,"CCOC(=O)N1CCC(NS(=O)(=O)c2ccc(NC(=O)c3ccccc3C)c3c2CCC3)C1 (racemic) [Compound H-72, (±)-3-[7-(2-Methyl-benzoylamino)-indane-4-sulfonylamino]-pyrrolidine-1-carboxylic acid ethyl eter]"
24,< 30000,CN1CCCC(C(=O)Nc2ccc(S(=O)(=O)NC3CCN(C(=O)OC(C)(C)C)CC3)c3ccccc23)C1 (centres unmarked) [Compound B-23]
25,< 1000,"CCOC(=O)N1CC[C@@H](NS(=O)(=O)c2ccc(NC(=O)c3ccccc3C)c3ccccc23)[C@@H](C)C1 (single isomer, unassigned) [Compound C-138, cis-3-Methyl-4-[4-(2-methyl-benzoylamino)-naphthalene-1-sulfonylamino]-piperidine-1-carboxylic acid ethyl ester]"
26,< 500,"CCN(CC)C(=O)N1CCC(NS(=O)(=O)c2ccc(NC(=O)c3ccccc3C)c3ccccc23)CC1 [Compound C-42, 4-[4-(2-Methyl-benzoylamino)-naphthalene-1-sulfonylamino]-piperidine-1-carboxylic acid diethylamide]"
27,< 500,"CCOC(=O)N1CCC(NS(=O)(=O)c2cccc3c(NC(=O)c4ccco4)cccc23)CC1 [Compound H-8, 4-{5-[(Furan-2-carbonyl)-amino]-naphthalene-1-sulfonylamino}-piperidine-1-carboxylic acid ethyl ester]"
28,< 1000,"CCCC(=O)N1CCC(NS(=O)(=O)c2ccc(C(=O)NC3CCOCC3)c3ccccc23)CC1 [Compound F-24, 4-(1-Butyryl-piperidin-4-ylsulfamoyl)-naphthalene-1-carboxylic acid (tetrahydro-pyran-4-yl)-amide]"
29,< 30000,"CC(C)(C)OC(=O)N1CCC(NS(=O)(=O)c2ccc(NC(=O)C3CC3)c3ccccc23)CC1 [Compound B-17, 4-[4-(Cyclopropanecarbonyl-amino)-naphthalene-1-sulfonylamino]-piperidine-1-carboxylic acid tert-butyl ester]"

# Source: patent US7491827B2, “Aryl sulfonamides useful as inhibitors of chemokine receptor activity” (Millennium Pharmaceuticals, Inc., priority 2003, dated 2009)
